Source: US6812028B1, “Embryogenesis and plant regeneration from microspores” (University of Guelph, priority 1999, dated 2004)

Columns and labels:
Assay type in all cases: cell-based
[1] = tested on: wheat microspores cv Pavon 79; assay: Regeneration of plants from wheat microspores with AGP in induction media MMS4; details: for # of plants Albino / # of plants Total / # of plants green / % of green plants / % of regen.: 250 embryos transferred to regeneration medium; for Total # of embryos: induction media MMS4, cv Pavon 79
Protocol: (§1) The effect of AGP on embryogenesis and plant regeneration was assessed in wheat microspores which were isolated from genotype Pavon 79 according to the method of the present invention. AGP levels of 0, 1, 5, and 10 mg/liter were tested. […] Additionally, the data illustrates the presence of ovaries in co-culture enhanced embryogenesis and plant regeneration. Only at 10 mg/liter of AGP was significant embryogenesis observed in the absence of ovary co-culture. FIG. 5(a) illustrates the comparative response of wheat microspores to the presence or absence of wheat ovaries and 0 or 10 mg/L AGP. FIG. 6 illustrates the good embryo structure developed in wheat after 4 weeks on medium with ovaries and AGP.

[2] = tested on: wheat isolated microspores cv Pavon 79; assay: Response of wheat isolated microspore cultures to AGP levels in MMS4 medium, with and without ovaries; details: MMS4, cv Pavon 79
Protocol: as §1, with “tested. [table]” for “tested.”

[3] = tested on: barley cv Igri isolated microspores; assay: AGP effect on barley isolated microspore development in liquid FHG medium; details: after 10 days
Description: The effect of AGP concentration during embryogenic induction of barley microspores in culture was examined. A wide range of concentrations was applied to microspores […]. The AGP addition was effected by adding varying AGP concentrations in liquid FHG medium with 10^5 microspores onto solid FGH medium. Using a drop of microspores on solidified MFHG medium, structures were counted under an inverted microscope. The proportion of alive and dead microspores was not estimated in these plates, but the developing microspores were much higher in the 0 mg control compared to wheat. Thus, the difference in response of barley to AGP at day 10 is not as pronounced as in wheat.

[4] = tested on: wheat (cv. Pavon 76) microspores; assay: Influence of regeneration media on plant development from wheat microspores; details: AGP in regeneration media
Protocol: A comparison of regeneration media composition was conducted for wheat microspores induced on a medium in the presence and absence AGP. The regeneration medium was based on MMS4 medium having either 3% sucrose or 9% maltose as a sugar source, or in an AGP-containing medium based on MMS4 with 9% maltose. The microspores were either induced on a support, in this case, a Watman #2 filter disk, or were placed on a solid media in liquid drops. […] Sucrose within the regeneration media was effective in producing a high percentage of green plants, however maltose was also found to be effective. Without wishing to be bound by theory, this may be due to the quicker release of energy from sucrose that is required for regeneration.

[5] = tested on: spring wheat Pavon 79 isolated microspores; assay: AGP in isolated microspore culture, liquid medium versus filter paper, co-cultured with ovaries; details: for Total # Embryos/Plate: MMS4, with ovaries
Protocol: […] […] The results are similar for liquid and filter paper at the 3 compared concentrations, and 10 mg/liter of AGP gave the best response.

[6] = tested on: microspores of spring wheat genotypes Chris and Pavon 79; assay: AGP effect on embryo development from microspores, 0.8 ml drop on solid MMS4 with 3-4 ovaries; details: for avg. # embryos: genotype Chris, 5 reps; for # embryos: genotype Pavon 79, 3 reps
Protocol: The effect of AGP on microspore embryogenesis in the presence of ovary co-culture was assessed using Chris and Pavon 79 wheat genotypes. Media comprising 5 mg/liter and 10 mg/liter of AGP were compared with a control medium, on microspore embryogenesis in the presence of ovary co-culture. The results in Table 9 indicate that overall response of Chris to AGP is higher than the response of Pavon 79.

In the case of arabinogalactan protein [AGP], the “# of plants Albino” value ([1]; AGP 1 mg/L with ovaries) is reported as 70, the “# of plants Total” value ([1]; AGP 1 mg/L with ovaries) is reported as 118 and the “# of plants green” value ([1]; AGP 1 mg/L with ovaries) is reported as 48. For the same substance, the “% of green plants” value ([1]; AGP 1 mg/L with ovaries) was 41%, the “% of regen.” value ([1]; AGP 1 mg/L with ovaries) was 47% and the “Total # of embryos” value ([1]; AGP 1 mg/L with ovaries) was 2130. The “# of plants Albino” value ([1]; AGP 5 mg/L with ovaries) was 70, the “# of plants Total” value ([1]; AGP 5 mg/L with ovaries) was 120 and the “# of plants green” value ([1]; AGP 5 mg/L with ovaries) was 50. The “% of green plants” value ([1]; AGP 5 mg/L with ovaries) was 42%, the “% of regen.” value ([1]; AGP 5 mg/L with ovaries) was 48% and the “Total # of embryos” value ([1]; AGP 5 mg/L with ovaries) was 3393. For the same substance, the “# of plants Albino” value ([1]; AGP 10 mg/L with ovaries) was 60, the “# of plants Total” value ([1]; AGP 10 mg/L with ovaries) was 189 and the “# of plants green” value ([1]; AGP 10 mg/L with ovaries) was 129. For the same substance, the “% of green plants” value ([1]; AGP 10 mg/L with ovaries) was 68%, the “% of regen.” value ([1]; AGP 10 mg/L with ovaries) was 76% and the “Total # of embryos” value ([1]; AGP 10 mg/L with ovaries) was 4250. The “embryogenesis, regeneration and % green plant production” value ([1]; addition of 10 mg/L of AGP, genotype Pavon 79) was “significant improvement”, the “# alive and dividing d 10” value ([2]; AGP 1 mg/L, ovary +) was 22605 and the “# alive not dividing d 10” value ([2]; AGP 1 mg/L, ovary +) was 2805. The “# dead microspores d 10” value ([2]; AGP 1 mg/L, ovary +) was 47175, the “# embryos 30 days” value ([2]; AGP 1 mg/L, ovary +) was 2130 and the “# multicell burst d 10” value ([2]; AGP 1 mg/L, ovary +) was 1072. For the same substance, the “# multicellular d 10” value ([2]; AGP 1 mg/L, ovary +) was 18500, the “# alive and dividing d 10” value ([2]; AGP 1 mg/L, ovary −) was 22125 and the “# alive not dividing d 10” value ([2]; AGP 1 mg/L, ovary −) was 5650. For the same substance, the “# dead microspores d 10” value ([2]; AGP 1 mg/L, ovary −) was 47558, the “# embryos 30 days” value ([2]; AGP 1 mg/L, ovary −) was 0 and the “# multicell burst d 10” value ([2]; AGP 1 mg/L, ovary −) was 400. For the same substance, the “# multicellular d 10” value ([2]; AGP 1 mg/L, ovary −) was 13750, the “# alive and dividing d 10” value ([2]; AGP 5 mg/L, ovary +) was 18272 and the “# alive not dividing d 10” value ([2]; AGP 5 mg/L, ovary +) was 7600. For the same substance, the “# dead microspores d 10” value ([2]; AGP 5 mg/L, ovary +) was 30250, the “# embryos 30 days” value ([2]; AGP 5 mg/L, ovary +) was 3393 and the “# multicell burst d 10” value ([2]; AGP 5 mg/L, ovary +) was 7080. For the same substance, the “# multicellular d 10” value ([2]; AGP 5 mg/L, ovary +) was 39078, the “# alive and dividing d 10” value ([2]; AGP 5 mg/L, ovary −) was 26152 and the “# alive not dividing d 10” value ([2]; AGP 5 mg/L, ovary −) was 8275. The “# dead microspores d 10” value ([2]; AGP 5 mg/L, ovary −) was 34500, the “# embryos 30 days” value ([2]; AGP 5 mg/L, ovary −) was 0 and the “# multicell burst d 10” value ([2]; AGP 5 mg/L, ovary −) was 742. The “# multicellular d 10” value ([2]; AGP 5 mg/L, ovary −) was 28345, the “# alive and dividing d 10” value ([2]; AGP 10 mg/L, ovary +) was 8500 and the “# alive not dividing d 10” value ([2]; AGP 10 mg/L, ovary +) was 0. For the same substance, the “# dead microspores d 10” value ([2]; AGP 10 mg/L, ovary +) was 23550, the “# embryos 30 days” value ([2]; AGP 10 mg/L, ovary +) was 4250 and the “# multicell burst d 10” value ([2]; AGP 10 mg/L, ovary +) was 15452. The “# multicellular d 10” value ([2]; AGP 10 mg/L, ovary +) was 68000, the “# alive and dividing d 10” value ([2]; AGP 10 mg/L, ovary −) was 33275 and the “# alive not dividing d 10” value ([2]; AGP 10 mg/L, ovary −) was 6250. For the same substance, the “# dead microspores d 10” value ([2]; AGP 10 mg/L, ovary −) was 24650, the “# embryos 30 days” value ([2]; AGP 10 mg/L, ovary −) was 50 and the “# multicell burst d 10” value ([2]; AGP 10 mg/L, ovary −) was 4620. The “# multicellular d 10” value ([2]; AGP 10 mg/L, ovary −) was 41950, the Dividing within microspore ([3]; AGP 2 mg/L) was 39600 and the “Free Multicellulars” value ([3]; AGP 2 mg/L) was 33550. The “Total Developing” value ([3]; AGP 2 mg/L) was 73150, the Dividing within microspore ([3]; AGP 5 mg/L) was 43000 and the “Free Multicellulars” value ([3]; AGP 5 mg/L) was 38230. The “Total Developing” value ([3]; AGP 5 mg/L) was 81230, the Dividing within microspore ([3]; AGP 10 mg/L) was 45280 and the “Free Multicellulars” value ([3]; AGP 10 mg/L) was 35750. For the same substance, the “Total Developing” value ([3]; AGP 10 mg/L) was 81030, the Dividing within microspore ([3]; AGP 25 mg/L) was 39880 and the “Free Multicellulars” value ([3]; AGP 25 mg/L) was 36030. The “Total Developing” value ([3]; AGP 25 mg/L) was 75910, the Dividing within microspore ([3]; AGP 50 mg/L) was 37120 and the “Free Multicellulars” value ([3]; AGP 50 mg/L) was 39880. For the same substance, the “Total Developing” value ([3]; AGP 50 mg/L) was 77000, the Dividing within microspore ([3]; AGP 100 mg/L) was 42900 and the “Free Multicellulars” value ([3]; AGP 100 mg/L) was 37730. The “Total Developing” value ([3]; AGP 100 mg/L) was 80630, the Dividing within microspore ([3]; AGP 500 mg/L) was 35890 and the “Free Multicellulars” value ([3]; AGP 500 mg/L) was 37810. The “Total Developing” value ([3]; AGP 500 mg/L) was 73700, the Dividing within microspore ([3]; AGP 1000 mg/L) was 38500 and the “Free Multicellulars” value ([3]; AGP 1000 mg/L) was 41600. The “Total Developing” value ([3]; AGP 1000 mg/L) was 80100, the “effect of addition of AGP to the regeneration media on green plants” value [4] was “reduced the number of green plants produced” and the “embryo response in liquid and on filter paper” value ([5]; 10 mg/liter of AGP compared with 0 and 5 mg/liter) was “best response”. The “Total # Embryos/Plate” value ([5]; AGP 1 mg/L, Liquid) was 2130, the “Total # Embryos/Plate” value ([5]; AGP 5 mg/L, Filter) was 3080 and the “Total # Embryos/Plate” value ([5]; AGP 5 mg/L, Liquid) was 3393. For the same substance, the “Total # Embryos/Plate” value ([5]; AGP 10 mg/L, Filter) was 4528, the “Total # Embryos/Plate” value ([5]; AGP 10 mg/L, Liquid) was 4250 and the “avg. # embryos” value ([6]; AGP 5 mg/L) was 5618. The “# embryos” value ([6]; AGP 5 mg/L) was 4155, the “avg. # embryos” value ([6]; AGP 10 mg/L) was 9836 and the “# embryos” value ([6]; AGP 10 mg/L) was 4681.
